Source: patent US10030064B2, “Mammalian cell culture processes for protein production” (priority 2009, dated 2018)
Read-outs that look alike come from different tables or passages of the source.

Assays:
[1] = tested on: purified IgG-fusion proteins; details: Tris-acetate buffer pH 7.5, 37° C., 1 h
Method: Reduced glutathione (GSH) at 0, 1 and 3 mM final concentrations was added to Tris-acetate buffered (pH 7.5) solution of purified IgG-fusion proteins, and the mixture of GSH and proteins was incubated at 37° C. for 1 h before SEC-HPLC analysis.
SEC analysis was performed according to the previously published method (Perico et al., 2008) with some modifications. Briefly, the Protein-A purified samples were run on an Agilent 1100 HPLC system (Agilent Technologies, Inc., Palo Alto, Calif.) on Tosoh Bioscience TSK-Gel G3000 SWxl column (7.8 ID×30 cm, 5 μm particles). The mobile phase contained 1× Phosphate Buffered Saline (PBS) at pH 7.4. The flow rate was 0.5 mL/min, and column temperature was controlled at 25° C. The signal was monitored by absorbance at wavelength of 280 nm.
To determine if GSH itself could affect protein aggregation by directly interacting with the proteins, we did in vitro study by adding GSH to Protein-A purified IgG-fusion proteins that were reconstituted in Tris-acetate buffer, and analyzed SEC profiles.

CHO cells [2] = assay: Shake flask CHO culture in serum free medium: viable cell density, viability, growth rate, productivity (Example 3); type: cell-based, Chinese hamster; details: for final viability: over 0.1 to 10 μM; for Final VCD / Peak VCD / Viability (final, day 10): added two days after inoculation
Method: The CHO cell line used in this study was subcloned from DG44 parental cells and cultured in a proprietary chemically-defined growth medium.
The experiments were carried out in 250-mL shake flasks (VWR international) with starting volumes of 100 mL and initial cell densities of 6×10^5 cells/mL. The cultures were placed on a shaker platform (VWR international) at 150 rpm and maintained at 37° C. and 6% CO2 for ten days. The cultures were sampled daily and the pH adjustment using 1M sodium carbonate, and fed with glucose and glutamine every two days in order to maintain them at certain levels. Cell density and viability were measured off-line a Bioprofile Analyzer 400 (Nova Biomedical Corporation, Waltham, Mass.).
The eluted protein was quantified using a 10-level standard curve.

glutathione reductase = assay: Western blot of glutathione reductase in CHO cells; type: cell-based, Chinese hamster; details: 1 μM RU-486 added one day before 0.1 μM DEX
Method: After being washed with 1×PBS, approximately 10^7 CHO cells were lysed with 1 mL of Laemmli sample buffer (Bio-Rad Laboratories) and denatured at 90° C. for 5 minutes. The whole cell lysates were separated on a 4-15% SDS-polyacrylamide gel, blotted to 0.45 μm nitrocellulose membranes (Bio-Rad Laboratories), and probed with primary antibodies and secondary antibody. The primary antibody for detection of glutathione reductase was the monoclonal antibody raised against amino acids 391-510 mapping near the C-terminus of glutathione reductase of human origin (Santa Cruz Biotechnology, Santa Cruz, Calif.). […] The primary antibody used for detection of glucocorticoid receptor was anti-human monoclonal antibody (Santa Cruz Biotechnology, Santa Cruz, Calif.). The secondary antibody was horseradish peroxidase (HRP)-conjugated anti-mouse antibody (Santa Cruz Biotechnology, Santa Cruz, Calif.). Membranes were stripped and re-probed with β-actin antibody (Santa Cruz Biotechnology) and HRP-conjugated secondary antibody. Immunodetection was performed with the enhanced chemiluminescence Western blotting detection system (GE Healthcare) and visualized with VersaDoc Imaging System (Bio-Rad Laboratories).
A Western Blot was performed to detect glutathione reductase expression in the whole cell lysates prepared from the CHO cells treated with various concentrations of DEX. […]

CHO cells [3] = assay: Preliminary experiment: RU-486 on CHO cell viability, growth and metabolic parameters; type: cell-based, Chinese hamster
From the text: RU-486 is a GR antagonist and often used as a tool drug in many GR related studies.

GILZ = assay: Western blot of GILZ protein in CHO cells; type: cell-based, Chinese hamster; details: in the presence of 1 μM RU-486
Method: Approximately 10^7 CHO cells were washed with 1× phosphate buffered saline (PBS) solution, lysed with 1 mL of Laemmli sample buffer (Bio-Rad Laboratories, Hercules, Calif.), and then denatured at 90° C. for 5 minutes. […] Membranes were stripped and re-probed with β-actin antibody (Santa Cruz Biotechnology) and an HRP-conjugated anti-mouse secondary antibody. Immunodetection was performed with the enhanced chemiluminescence Western blotting detection system (GE Healthcare UK Limited Little Chalfont, Buckinghamshire, UK) and visualized with a VersaDoc Imaging System (Bio-Rad Laboratories, Hercules, Calif.).
The blot was also reprobed with the beta-actin antibody as a control to assess equivalent gel loading.

SMILES | reduction rate of percentage of high molecular weight species ([1]; 1 mM GSH) [%] | reduction rate of percentage of high molecular weight species ([1]; 3 mM GSH) [%] | final viability (CHO cells [2]) | Final VCD (CHO cells [2]; treatment concentration 0.1 μM) | Peak VCD (CHO cells [2]; treatment concentration 0.1 μM) | Viability (final, day 10) (CHO cells [2]; treatment concentration 0.1 μM) [%] | Final VCD (CHO cells [2]; treatment concentration 1 μM) | Peak VCD (CHO cells [2]; treatment concentration 1 μM) | Viability (final, day 10) (CHO cells [2]; treatment concentration 1 μM) [%] | Final VCD (CHO cells [2]; treatment concentration 10 μM) | Peak VCD (CHO cells [2]; treatment concentration 10 μM) | Viability (final, day 10) (CHO cells [2]; treatment concentration 10 μM) [%] | up-regulatory effect of DEX on glutathione reductase expression (glutathione reductase) | effect on cell viability and cell growth rate (CHO cells [3]; RU-486 at 10 μM) | effect on CHO cell viability and metabolic parameters (CHO cells [3]; RU-486 concentrations not higher than 1 μM) | DEX-induced overexpression of GILZ protein (GILZ)
N[C@@H](CCC(=O)N[C@@H](CS)C(=O)NCC(=O)O)C(=O)O [GSH, Reduced glutathione] | 15.3 | 27.3 | – | – | – | – | – | – | – | – | – | – | – | – | – | –
C[C@]12CCC(=O)C=C1CC[C@@H]1[C@@H]2[C@@H](O)C[C@@]2(C)[C@H]1CC[C@]2(O)C(=O)CO [HYC, hydrocortisone] | – | – | 60.1-75.5% | 7.86 ×10^6 cells/mL | 10.06 ×10^6 cells/mL | 60.1 | 8.15 ×10^6 cells/mL | 9.51 ×10^6 cells/mL | 65.1 | 7.80 ×10^6 cells/mL | 8.44 ×10^6 cells/mL | 75.5 | – | – | – | –
C[C@]12C=CC(=O)C=C1CC[C@@H]1[C@@H]2[C@@H](O)C[C@@]2(C)[C@H]1CC[C@]2(O)C(=O)CO [PRD, prednisolone] | – | – | 69.4-75.5% | 8.26 ×10^6 cells/mL | 8.99 ×10^6 cells/mL | 69.4 | 8.79 ×10^6 cells/mL | 9.25 ×10^6 cells/mL | 76.8 | 8.27 ×10^6 cells/mL | 8.05 ×10^6 cells/mL | 77.5 | – | – | – | –
CC#C[C@]1(O)CC[C@H]2[C@@H]3CCC4=CC(=O)CCC4=C3[C@@H](c3ccc(N(C)C)cc3)C[C@@]21C [RU-486, mifepristone] | – | – | – | – | – | – | – | – | – | – | – | – | attenuated | significant decrease | did not affect | significantly decreased
